The target of one experiment is T1, SARS-Cov-2 3CLpro (Severe acute respiratory syndrome coronavirus 2, UniProt P0DTD1).
T1 construct: 3CLpro and HRV3C was added using a Multidrop Combi
Kind of experiment: biochemical. To be noted: 3CLpro, 30 mins preincubation, SAMDI-MS; read-out: SARS-Cov-2 IC50 (class).

The target in a further experiment is T2, HRV3C (Human rhinovirus 14, UniProt P03303).
T2 construct: 3CLpro and HRV3C was added using a Multidrop Combi
As to the kind of experiment: biochemical. Also noted: species or system HRV. Particulars: HRV3C, 30 mins preincubation, SAMDI-MS.

Experiment [1] relates to human beta-coronavirus OC43. As to the kind of experiment: OC43 coronavirus antiviral assay in HeLa cells (cytopathic effect, cell-titer-glo). The format is cell-based. Particulars: Betacoronavirus 1, OC43, HeLa, 144 h, 6 days at 33° C., read-out: EC50 (class).
The test system of experiment [2] is SARS-CoV-2-GHB-03021/2020. The format is cell-based. To be noted: read-out: VeroE6 + CP (EC50).
In experiment [3] the test system is B.1.1.7 lineage SARS-CoV-2. As to the kind of experiment: microbe, parasite or virus in culture. To be noted: Severe acute respiratory syndrome coronavirus 2, 96 h; read-out: A549-dual_ACE2_TMPRSS2 (EC50). The format is cell-based.
The next experiment deals with T3, human cathepsin L (Homo sapiens, UniProt P07711).
T3 construct: purchased R&D Systems
T3 sequence (P07711 114-333): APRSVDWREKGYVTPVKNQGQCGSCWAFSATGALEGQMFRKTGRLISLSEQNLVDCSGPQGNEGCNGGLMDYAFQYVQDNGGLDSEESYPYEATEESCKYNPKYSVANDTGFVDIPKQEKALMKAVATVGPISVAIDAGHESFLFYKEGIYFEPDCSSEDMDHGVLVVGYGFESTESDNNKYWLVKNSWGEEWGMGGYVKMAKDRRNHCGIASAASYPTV
Kind of experiment: Cathepsin L assay (Z-FR-AMC fluorescence). Particulars: 10 pM human cathepsin L, 30 mins preincubation, Z-FR-AMC 2 μM. The format is biochemical. A digest of the protocol:
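IC50 values were taken from four-parameter fits of fluorescence read at 355/460 nm every 2 minutes for 30 minutes. The reaction started when 2 μM Z-FR-AMC was added. Before that, 10 pM human cathepsin L had been preincubated with inhibitor for 30 minutes.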

Structures are written as SMILES. Read-outs that look alike come from different tables or passages of the source. Bounds are passed on as bounds.

T2 sequence (P03303 1538-1719): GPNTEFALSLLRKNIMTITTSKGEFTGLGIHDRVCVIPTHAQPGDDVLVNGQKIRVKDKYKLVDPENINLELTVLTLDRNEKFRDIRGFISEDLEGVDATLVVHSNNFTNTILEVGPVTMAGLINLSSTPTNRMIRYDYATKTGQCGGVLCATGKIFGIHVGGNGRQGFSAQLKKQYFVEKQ

As a reminder, the IC50 is the point on the concentration scale where inhibition reaches its midpoint. As a reminder, the EC50 is the concentration at which the effect is half-maximal. With `CC(C)(C)[C@H](NC(=O)C(F)(F)Cl)C(=O)N1C[C@@H]2[C@@H]3CC[C@@H](C3)[C@@H]2[C@H]1C(=O)N[C@H](C#N)C[C@@H]1CCNC1=O` [Example 40, (1S,2S,3S,6R,7R)-4-[(2S)-2-(2-chloro-2,2-difluoroacetamido)-3,3-dimethylbutanoyl]-N-[(1S)-1-cyano-2-[(3S)-2-oxopyrrolidin-3-yl]ethyl]-4-azatricyclo[5.2.1.0^{2,6}]decane-3-carboxamide], the IC50 on SARS-Cov-2 3CLpro was under 0.02 µM; at HRV3C (read-out: HRV IC50 (bound)) it was over 10 µM; at human cathepsin L, at least 10 µM. For the same molecule, the EC50 in experiment [1], in experiment [2] and in experiment [3] was under 0.1 µM throughout.

Regarding `CC(C)(C)[C@H](NC(=O)[C@H]1CCCO1)C(=O)N1C[C@H]2[C@@H]([C@H]1C(=O)N[C@H](C#N)C[C@@H]1CCNC1=O)[C@H]1C=C[C@@H]2C1` [Example 22, (1S,3aR,4S,7R,7aS)-N-((S)-1-cyano-2-((S)-2-oxopyrrolidin-3-yl)ethyl)-2-((S)-3,3-dimethyl-2-((R)-tetrahydrofuran-2-carboxamido)butanoyl)-2,3,3a,4,7,7a-hexahydro-1H-4,7-methanoisoindole-1-carboxamide], the IC50 was 0.2 to 2 µM on SARS-Cov-2 3CLpro, over 10 µM at HRV3C (read-out: HRV IC50 (bound)) and at least 10 µM on human cathepsin L. Further, the EC50 in experiment [1], in experiment [2] and in experiment [3] was 1 to 10 µM each time.

`CC(C)(C)[C@H](NC(=O)C(F)(F)F)C(=O)N1C[C@H]2[C@@H]([C@H]1C(=O)N[C@H](C#N)C[C@@H]1CCNC1=O)[C@H]1CC[C@@H]2O1` (mixture of isomers) [Compound 58, (1S,3aR,4S,7R,7aS)-N-((S)-1-cyano-2-((S)-2-oxopyrrolidin-3-yl)ethyl)-2-((S)-3,3-dimethyl-2-(2,2,2-trifluoroacetamido)butanoyl)octahydro-1H-4,7-epoxyisoindole-1-carboxamide]: the IC50 at SARS-Cov-2 3CLpro is 0.2 to 2 µM; at HRV3C (read-out: HRV IC50 (bound)) it was over 10 µM; against human cathepsin L, at least 10 µM. The EC50 in experiment [1], in experiment [2] and in experiment [3] was 1 to 10 µM throughout.

For the molecule `N#C[C@H](C[C@@H]1CCNC1=O)NC(=O)[C@@H]1[C@@H]2[C@H](CN1C(=O)[C@@H](NC(=O)C(F)(F)F)C13CC(C1)C3)[C@@H]1C=C[C@H]2C1` [Example 27, (1R,2S,3S,6R,7S)-4-[(2S)-2-{bicyclo[1.1.1]pentan-1-yl}-2-(2,2,2-trifluoroacetamido)acetyl]-N-[(1S)-1-cyano-2-[(3S)-2-oxopyrrolidin-3-yl]ethyl]-4-azatricyclo[5.2.1.0^{2,6}]dec-8-ene-3-carboxamide], the figures for the IC50 at SARS-Cov-2 3CLpro, on HRV3C (read-out: HRV IC50 (bound)) and against human cathepsin L were under 0.02 µM, over 10 µM and at least 10 µM, respectively. The figures for the EC50 in experiment [1], in experiment [2] and in experiment [3] were under 0.1 µM, under 0.1 µM and 0.1 to 1 µM, respectively.

With `O=C(NC1CC1)C(=O)C(C[C@@H]1CCNC1=O)NC(=O)[C@@H]1[C@@H]2[C@H](CN1C(=O)c1cc3c(Cl)cc(Cl)cc3[nH]1)[C@@H]1C=C[C@H]2C1` (stereo partly drawn) [Compound 46, (1S,3aR,4S,7R,7aS)—N-(4-(cyclopropylamino)-3,4-dioxo-1-((S)-2-oxopyrrolidin-3-yl)butan-2-yl)-2-(4,6-dichloro-1H-indole-2-carbonyl)-2,3,3a,4,7,7a-hexahydro-1H-4,7-methanoisoindole-1-carboxamide], the half-maximal inhibitory concentration (IC50) on SARS-Cov-2 3CLpro is under 0.02 µM; at HRV3C (read-out: HRV IC50 (class)), 0.2 to 2 µM; against human cathepsin L, at least 10 µM. Also, the EC50 in experiment [1], in experiment [2] and in experiment [3] was 0.1 to 1 µM throughout.

Values taken from patent publication US12252481B2, “Anti-viral compounds” (Aligos Therapeutics, Inc., priority 2021, dated 2025).
